In patent US20260262643A1, “HERBICIDAL BENZOXAZINES” (FMC CORPORATION, priority 2022, published 2026):

Key:
[1] = tested on: pigweed, palmer; test: Test C postemergence; format: in vivo, Amaranthus palmeri; details: postemergence, 10 days
Outline: (§1)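 Seeds in loam–sand blend received preemergence directed soil spray of test chemicals in non-phytotoxic solvent with surfactant; postemergence treatment was applied at one- to two-leaf stage (2–10 cm). After 10 days in greenhouse, injury rated visually versus untreated controls, 0 (no effect) to 100 (complete control).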

[2] = tested on: soybean; test: Test C postemergence; format: in vivo, Glycine max; details: postemergence, 10 days
Outline: as §1

[3] = tested on: ryegrass, Italian; test: Test C postemergence; format: in vivo, Lolium multiflorum; details: postemergence, 10 days
Outline: as §1

[4] = tested on: ragweed; test: Test C postemergence; format: in vivo, Ambrosia artemisiifolia; details: postemergence, 10 days
Outline: as §1

[5] = tested on: ryegrass, Italian; test: Test C preemergence; format: in vivo, Lolium multiflorum; details: preemergence, 0 to 100 scale (0 no effect, 100 complete control)
Outline: as §1

[6] = tested on: wheat; test: Test C preemergence; format: in vivo, Triticum aestivum; details: preemergence, 0 to 100 scale (0 no effect, 100 complete control)
Outline: as §1

[7] = tested on: green foxtail; test: Test C preemergence; format: in vivo, Setaria viridis; details: preemergence, 0 to 100 scale (0 no effect, 100 complete control)
Outline: as §1

[8] = tested on: blackgrass; test: Test C preemergence; format: in vivo, Alopecurus myosuroides; details: 0 to 100 scale (0 no effect, 100 complete control); for Blackgrass plant response rating: preemergence
Outline: as §1

[9] = tested on: barnyardgrass; test: Test D flooded paddy test; format: in vivo, Echinochloa crus-galli; details: 250 g ai/ha, applied to paddy water, visual rating after 13 to 14 days, scale 0 to 100 (0 no effect, 100 complete control)
Outline: (§2)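 Seedlings reached the 2-leaf stage, then pots were flooded to 3 cm over the soil surface. Compound was applied into the water, depth was maintained, and plants stayed in the greenhouse 13 to 14 days before visual scoring (0–100) relative to controls.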

[10] = tested on: corn; test: Test C preemergence; format: in vivo, Zea mays; details: preemergence, 0 to 100 scale (0 no effect, 100 complete control)
Outline: as §1

[11] = tested on: ducksalad; test: Test D flooded paddy test; format: in vivo, Heteranthera limosa; details: 250 g ai/ha, applied to paddy water, visual rating after 13 to 14 days, scale 0 to 100 (0 no effect, 100 complete control)
Outline: as §2

[12] = tested on: ragweed; test: Test C preemergence; format: in vivo, Ambrosia artemisiifolia; details: preemergence, 0 to 100 scale (0 no effect, 100 complete control)
Outline: as §1

[13] = tested on: corn; test: Test C postemergence; format: in vivo, Zea mays; details: 10 days
Outline: as §1

[14] = tested on: oat, wild; test: Test C preemergence; format: in vivo, Avena fatua; details: preemergence, 0 to 100 scale (0 no effect, 100 complete control)
Outline: as §1

[15] = tested on: oat, wild; test: Test C postemergence; format: in vivo, Avena fatua; details: postemergence, 10 days
Outline: as §1

[16] = tested on: pigweed, palmer; test: Test C preemergence; format: in vivo, Amaranthus palmeri; details: preemergence, 0 to 100 scale (0 no effect, 100 complete control)
Outline: as §1

[17] = tested on: wheat; test: Test C postemergence; format: in vivo, Triticum aestivum; details: postemergence, 10 days
Outline: as §1

[18] = tested on: barnyardgrass; test: Test C postemergence; format: in vivo, Echinochloa crusgalli; details: 10 days
Outline: as §1

[19] = tested on: kochia; test: Test C postemergence; format: in vivo, Bassia scoparia; details: postemergence, 10 days
Outline: as §1

[20] = tested on: green foxtail; test: Test C postemergence; format: in vivo, Setaria viridis; details: 10 days
Outline: as §1

[21] = tested on: horseweed; test: Test C postemergence; format: in vivo, Erigeron canadensis; details: 10 days
Outline: as §1

[22] = tested on: galium; test: Test C postemergence; format: in vivo, Galium aparine; details: 10 days
Outline: as §1

[23] = tested on: sedge, umbrella; test: Test D flooded paddy test; format: in vivo, Cyperus difformis; details: 250 g ai/ha, applied to paddy water, visual rating after 13 to 14 days, scale 0 to 100 (0 no effect, 100 complete control)
Outline: as §2

[24] = tested on: rice; test: Test D flooded paddy test; format: in vivo, Oryza sativa; details: 250 g ai/ha, applied to paddy water, visual rating after 13 to 14 days, scale 0 to 100 (0 no effect, 100 complete control)
Outline: as §2

[25] = tested on: barnyardgrass; test: Test C preemergence; format: in vivo, Echinochloa crusgalli; details: 0 to 100 scale (0 no effect, 100 complete control); for Barnyardgrass plant response rating: preemergence
Outline: as §1

[26] = tested on: blackgrass; test: Test C postemergence; format: in vivo, Alopecurus myosuroides; details: 10 days
Outline: as §1

[27] = tested on: soybean; test: Test C preemergence; format: in vivo, Glycine max; details: preemergence, 0 to 100 scale (0 no effect, 100 complete control)
Outline: as §1

[28] = tested on: kochia; test: Test C preemergence; format: in vivo, Bassia scoparia; details: preemergence, 0 to 100 scale (0 no effect, 100 complete control)
Outline: as §1

[29] = 125 g ai/ha, 0 to 100 scale, 0 no effect, 100 complete control
[30] = Preemergence, 500 g ai/ha, visual rating after 10 days
[31] = 125 g ai/ha, postemergence, 0 to 100 scale, 0 no effect, 100 complete control
[32] = Postemergence, 500 g ai/ha, visual 0 to 100 scale (0 no effect, 100 complete control)
[33] = 500 g ai/ha, 0 to 100 scale (0 no effect, 100 complete control)
[34] = 500 g ai/ha, postemergence, 0 to 100 scale (0 no effect, 100 complete control)

COC[C@H]1CN(C(=O)c2cc(-n3cnc(C(C)(C)O)n3)ccc2C)c2cccc(Cl)c2O1 [Compound 276]
Plant response rating, Pigweed, Palmer [1, 29]: 60 | Plant response rating, Soybean [2, 29]: 100 | Plant response rating, Ryegrass, Italian [3, 29]: 80 | Plant response rating, Ragweed [4, 29]: 60 | Ryegrass, Italian plant response rating ([5]; 500 g ai/ha): 90 | Ryegrass, Italian plant response rating ([5]; Test C, 125 g ai/ha): 90 | Wheat plant response rating ([6]; 500 g ai/ha): 90 | Wheat plant response rating ([6]; Test C, 125 g ai/ha): 80 | Foxtail, Green plant response rating ([7]; 500 g ai/ha): 100 | Foxtail, Green plant response rating ([7]; Test C, 125 g ai/ha): 100 | Plant response rating, Blackgrass [8, 30]: 90 | Blackgrass plant response rating ([8]; Test C, 125 g ai/ha): 90 | Plant response rating, Barnyardgrass (Flood) [9]: 35 | Corn plant response rating ([10]; 500 g ai/ha): 90 | Corn plant response rating ([10]; Test C, 125 g ai/ha): 50 | Plant response rating, Ducksalad (Flood) [11]: 70 | Ragweed plant response rating ([12]; 500 g ai/ha): 80 | Ragweed plant response rating ([12]; Test C, 125 g ai/ha): 60 | Plant response rating, Corn [13, 31]: 50 | Plant response rating, Corn [13, 32]: 90 | Oat, Wild plant response rating ([14]; 500 g ai/ha): 90 | Oat, Wild plant response rating ([14]; Test C, 125 g ai/ha): 80 | Plant response rating, Oat, Wild [15, 29]: 80 | Pigweed, Palmer plant response rating ([16]; 500 g ai/ha): 100 | Pigweed, Palmer plant response rating ([16]; Test C, 125 g ai/ha): 100 | Plant response rating, Wheat [17, 29]: 60 | Plant response rating, Barnyardgrass [18, 31]: 30 | Plant response rating, Barnyardgrass [18, 32]: 90 | Plant response rating, Kochia [19, 29]: 70 | Plant response rating, Foxtail, Green [20, 31]: 40 | Plant response rating, Foxtail, Green [20, 32]: 90 | Plant response rating, Horseweed [21, 31]: 50 | Plant response rating, Horseweed [21, 32]: 40 | Plant response rating, Galium [22, 31]: 100 | Plant response rating, Galium [22, 32]: 100 | Plant response rating, Sedge, Umbrella (Flood) [23]: 80 | Plant response rating, Rice (Flood) [24]: 20 | Plant response rating, Barnyardgrass [25, 30]: 100 | Barnyardgrass plant response rating ([25]; Test C, 125 g ai/ha): 90 | Plant response rating, Blackgrass [26, 31]: 60 | Plant response rating, Blackgrass [26, 32]: 90 | Soybean plant response rating ([27]; 500 g ai/ha): 100 | Soybean plant response rating ([27]; Test C, 125 g ai/ha): 100 | Kochia plant response rating ([28]; 500 g ai/ha): 90 | Kochia plant response rating ([28]; Test C, 125 g ai/ha): 90

Cc1cccc2c1O[C@@H](C)CN2C(=O)c1cccc(-n2cnc(N(C)S(C)(=O)=O)n2)c1 [Compound 299]
Plant response rating, Pigweed, Palmer [1, 29]: 40 | Plant response rating, Pigweed, Palmer [1, 33]: 60 | Plant response rating, Soybean [2, 29]: 60 | Plant response rating, Soybean [2, 33]: 100 | Plant response rating, Ryegrass, Italian [3, 29]: 70 | Plant response rating, Ryegrass, Italian [3, 33]: 90 | Plant response rating, Ragweed [4, 29]: 0 | Plant response rating, Ragweed [4, 33]: 0 | Ryegrass, Italian plant response rating ([5]; 500 g ai/ha): 90 | Ryegrass, Italian plant response rating ([5]; Test C, 125 g ai/ha): 70 | Wheat plant response rating ([6]; 500 g ai/ha): 30 | Wheat plant response rating ([6]; Test C, 125 g ai/ha): 0 | Foxtail, Green plant response rating ([7]; 500 g ai/ha): 100 | Foxtail, Green plant response rating ([7]; Test C, 125 g ai/ha): 60 | Blackgrass plant response rating ([8]; 500 g ai/ha): 70 | Blackgrass plant response rating ([8]; Test C, 125 g ai/ha): 30 | Plant response rating, Barnyardgrass (Flood) [9]: 0 | Corn plant response rating ([10]; 500 g ai/ha): 30 | Corn plant response rating ([10]; Test C, 125 g ai/ha): 0 | Plant response rating, Ducksalad (Flood) [11]: 95 | Ragweed plant response rating ([12]; 500 g ai/ha): 100 | Ragweed plant response rating ([12]; Test C, 125 g ai/ha): 70 | Plant response rating, Corn [13, 31]: 10 | Plant response rating, Corn [13, 34]: 20 | Oat, Wild plant response rating ([14]; 500 g ai/ha): 90 | Oat, Wild plant response rating ([14]; Test C, 125 g ai/ha): 0 | Plant response rating, Oat, Wild [15, 29]: 20 | Plant response rating, Oat, Wild [15, 33]: 60 | Pigweed, Palmer plant response rating ([16]; 500 g ai/ha): 90 | Pigweed, Palmer plant response rating ([16]; Test C, 125 g ai/ha): 50 | Plant response rating, Wheat [17, 29]: 20 | Plant response rating, Wheat [17, 33]: 40 | Plant response rating, Barnyardgrass [18, 31]: 10 | Plant response rating, Barnyardgrass [18, 34]: 50 | Plant response rating, Kochia [19, 29]: 10 | Plant response rating, Kochia [19, 33]: 70 | Plant response rating, Foxtail, Green [20, 31]: 10 | Plant response rating, Foxtail, Green [20, 34]: 40 | Plant response rating, Horseweed [21, 31]: 10 | Plant response rating, Horseweed [21, 34]: 30 | Plant response rating, Galium [22, 31]: 80 | Plant response rating, Galium [22, 34]: 90 | Plant response rating, Sedge, Umbrella (Flood) [23]: 25 | Plant response rating, Rice (Flood) [24]: 0 | Barnyardgrass plant response rating ([25]; 500 g ai/ha): 80 | Barnyardgrass plant response rating ([25]; Test C, 125 g ai/ha): 10 | Plant response rating, Blackgrass [26, 31]: 20 | Plant response rating, Blackgrass [26, 34]: 90 | Soybean plant response rating ([27]; 500 g ai/ha): 0 | Soybean plant response rating ([27]; Test C, 125 g ai/ha): 0 | Kochia plant response rating ([28]; 500 g ai/ha): 80 | Kochia plant response rating ([28]; Test C, 125 g ai/ha): 0
